The experiment deals with DENV-2 Rega lab strain. Briefly: Lethal DENV challenge study (survival study) in AG129 mice with 4G2 antibody-dependent enhancement. It counts as in vivo. The note with it: monitored max. 25 days, 10^6 PFU. The procedure: In the lethal DENV challenge study (or survival study), antibody-dependent-enhancement (ADE) induced dengue disease is imitated by injecting AG129 mice (n=10 per group) i.p. with Anti-Flavivirus Group Antigen Antibody, clone D1-4G2-4-15 (‘4G2’; Millipore), one day prior to challenge with DENV-2 Rega lab strain (1×10^6 PFU, i.p.). Animals were treated by administering compound (b) by oral gavage with a first administration at one hour prior to infection. The treatment continued for five consecutive days with one administration of compound (b) every 12 hours (twice daily or b.i.d.). (FIG. 15X).
The mice were divided in several groups (n=8/group for the viremia study and n=10/group for the survival study) representing the following treatment regimens: • (i) vehicle, 80%/20% PEG400/H2O • (ii) compound (b): 30 mg/kg/dose b.i.d. • (iii) compound (b): 10 mg/kg/dose b.i.d. • (iv) compound (b): 3 mg/kg/dose b.i.d. • (v) compound (b): 1 mg/kg/dose b.i.d.
Next, the impact of compound (b) was assessed on virus-induced disease and mortality when dosed (orally, b.i.d.) for just 5 consecutive days starting at the day of infection (survival study). Animals were monitored for a maximum period of 25 days. All but one (19 of 20) vehicle-treated mice had to be euthanized. At a dose of 30 mg/kg, 90% of the mice survived the viral challenge and at doses of 10, 3 and 1 mg/kg, the survival rate was respectively 80%, 85% and 75% (FIG. 15Z).

Drawing on patent US12702657B2, “Treatment and prevention of dengue disease” (Janssen Pharmaceuticals, Inc., priority 2019, dated 2026), this text covers survival rate for one compound.

As to `COc1cc(NC(C(=O)N2CCc3ccc(OC(F)(F)F)cc32)c2ccc(Cl)cc2)cc(OCCCC(=O)O)c1` (stereo not shown) [compound (b)], the survival rate came to 75% (1 mg/kg b.i.d. orally for 5 days), 85% (3 mg/kg b.i.d. orally for 5 days), 80% (10 mg/kg b.i.d. orally for 5 days) and 90% (30 mg/kg b.i.d. orally for 5 days).
